Laboratory results: BindingDB's records for doi:10.1111/j.1747-0285.2007.00514.x (University of Maryland, 2007)

Target: HIV-1 protease (Human immunodeficiency virus, UniProt O90783)
Assay: Inhibition Assay
Description: Inhibition assay using HIV protease and Sulfonamide compounds.

Sequence of HIV-1 protease (O90783 whole entry): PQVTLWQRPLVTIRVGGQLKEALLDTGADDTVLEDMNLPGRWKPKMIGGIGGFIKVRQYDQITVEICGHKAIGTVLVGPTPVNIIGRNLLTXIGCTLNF

Compound	Ki [nM]
COc1cc(C(=O)N[C@@H](Cc2ccccc2)[C@H](O)CN(C[C@H]2CCCO2)S(=O)(=O)c2cn(C)cn2)ccn1 [CARB-AC97]	910
CNC(=O)CCC(=O)N[C@@H](Cc1ccccc1)[C@H](O)CN(C[C@@H](C)O)S(=O)(=O)c1cccc(OC)c1 [CARB-KB32]	760

These reach a lower Ki. Values come first.

Ki [nM]	Compound
540	CNC(=O)CCC(=O)N[C@@H](Cc1ccccc1)[C@H](O)CN(C[C@@H](C)O)S(=O)(=O)c1ccco1 [CARB-KB49]
260	C[C@@H](O)CN(C[C@@H](O)[C@H](Cc1ccccc1)NC(=O)CC1C=CCC1)S(=O)(=O)c1ccco1 (stereo partly specified) [CARB-KB51]
110	COc1cccc(S(=O)(=O)N(CC2CCCO2)C[C@@H](O)[C@H](Cc2ccccc2)NC(=O)c2ccnc(OC)c2)c1 (stereo partly specified) [CARB-AD08]
0.18	CC(=N[C@H]1c2ccccc2C[C@H]1O)[C@@H](Cc1ccccc1)C[C@H](O)CN1CCN(Cc2cccnc2)C[C@H]1C(=O)NC(C)(C)C [IDV]
